Structures are written as SMILES.

Experimental findings from US20250082786A1, “FLUORESCENT MARKERS FOR NEUROFIBRILLAR TANGLES AND USES THEREOF” (FONDAZIONE ISTITUTO ITALIANO DI TECNOLOGIA, priority 2021, published 2025) are described below.

Test [1] relates to intracellular TAU aggregates in human iPSC-derived cortical neurons. Nature of the test: Probe staining of hiPSC-derived cortical neurons, colocalization with anti-T22 and anti-AT8 antibodies. The following applies: 100 μM probe, 30 minutes at 37° C., cortical neurons at 30 days in vitro. In kind it is cell-based. The protocol:
FIG. 3. (A) Representative binarized fluorescence image showing human iPSC-derived cortical neurons at 30 days in vitro after incubation with BT1 (100 μM) for 30 minutes at 37° C. and staining with anti-T22 and anti-AT8 antibodies. • (B) Representative binarized fluorescence image showing human iPSC-derived cortical neurons at 30 days in vitro after incubation with TAU1 (100 μM) for 30 minutes at 37° C. and staining with anti-T22 and anti-AT8 antibodies. • (C) Fluorescence composite of the above representative images. […] (D) The probe specificity is calculated as the ratio between the antibody intensity within the area covered by BT1 or TAU1 out of the total antibody intensity (n=3), as determined using Image J. Images were acquired at the FV10i confocal microscope using a […] magnification. […]
Fixed hiPSC-derived cortical neurons and RGCs were permeabilized with 0.2% Triton X-100 (Merck Life Science) in 1×TBS and incubated for 1 hour in blocking solution containing 1×TBS, 0.2% Triton X-100, and 5% goat serum (Merck Life Science). […] Fluorescence intensity per field of view was determined using the Software Image J.
The ability of the BT1 probe to stain specifically intracellular TAU aggregates was determined as a function of the antibody fluorescent signal detected within the binarized probe signal.

Test [2] concerns intracellular TAU aggregates in human iPSC-derived retinal ganglion cells. Nature of the test: Probe staining of hiPSC-derived retinal ganglion cells, colocalization with anti-T22 and anti-AT8 antibodies. In kind it is cell-based. The following applies: 100 μM probe, 30 minutes at 37° C., retinal ganglion cells at 30 days in vitro. The protocol:
FIG. 4. (A) Representative binarized fluorescence image showing human iPSC-derived retinal ganglion cells at 30 days in vitro after incubation with BT1 (100 μM) for 30 minutes at 37° C. and staining with anti-T22 and anti-AT8 antibodies. • (B) Representative binarized fluorescence image showing human iPSC-derived retinal ganglion cells at 30 days in vitro after incubation with TAU1 (100 μM) for 30 minutes at 37° C. and staining with anti-T22 and anti-AT8 antibodies. • (C) Fluorescence composite of the above representative images. The fluorescent image of BT1 was obtained using excitation at 520 nm with a 555/15 nm filter in detection; TAU1 was obtained using excitation at 470 nm with a 510/5 nm filter in detection. […] Cell nuclei were stained with DAPI. • (D) The probe specificity is calculated as the ratio between the antibody intensity within the area covered by BT1 or TAU1 out of the total antibody intensity (n=3), as determined using Image J. Images were acquired at the FV10i confocal microscope using a 60× magnification.
The differentiation protocol was a revisited version of Sluch V. et al, 2017 with minor modifications. Human iPSCs were dissociated to single cells with 1× Accutase (Merck Life science) and plated on growth factor-reduced Matrigel coated plates at a density of 1000 cells/mm2 in mTeSR Plus supplemented with 10 μM Rock-inhibitor Y-27632 (Peprotech). […]

As for `CC1=CC(/C=C/c2ccc(/C=C/c3ccc(N(C)C)cc3)cc2)=[N+]2C1=Cc1cccn1[B-]2(F)F` [BT1, 3-((E)-4-((E)-4-(dimethylamino)styryl)styryl)-5,5-difluoro-1-methyl-5H-dipyrrolo[1,2-c:2′,1′-f][1,3,2]diazaborinin-4-ium-5-uide], the “Ability to detect phosphorylated (AT8-positive) aggregates” value in test [1] and in test [2] was “higher ability to detect phosphorylated aggregates when compared to the TAU1 probe” throughout. In addition, the “Colocalization of probe signal with AT8 versus T22 antibody signal” value in test [1] and in test [2] was “higher colocalization with AT8 signal in respect to T22” in each case.
